Experiments:
[1] = test system: Phytophthora cinnamomi; assay: Amended agar assay (potato dextrose agar), reduction in colony growth; type: cell-based; details: for inhibition of growth at 20 ppm / control over the fungal pathogens tested (in words): primary screen at 20 ppm; for inhibition of growth at 20 ppm: read-out: % control at 20 ppm; for EC50: descending test concentrations, 5-fold dilutions typically down to 0.032 ppm, read-out: Phytophthora cinnamomi (EC50)
Experimental: (§1) Testing was carried out on potato dextrose agar (PDA) amended with each compound at test concentrations of 20, 4 and 0.8, 0.16 and 0.032 ppm. Amended agar at each test concentration was poured into three replicate 9 cm petri dishes. Each replicate dish was inoculated in the centre with a 5 mm agar plug taken from the leading edge of a culture aged between 2 and 7 days old; the age of the culture was dependant on the growth rate of the pathogen being tested. The test pathogens were Pythium ultimum and Phytophthora cinnamomi. Plates were incubated at 18° C. and the diameter of each colony measured before growth on the fastest growing plate reached the plate edge. This varied between 2 and 7 days depending on the growth rate of test pathogens. The % reduction in colony growth compared to the control was calculated for each test concentration and pathogen combination.
(§2) The results are shown in Table 1 in which * represents an average control of up to 50% at said dosage; ** represents an average control of 50% or greater but less than 80% at said dosage; and *** represents an average control of 80% or greater at said dosage.
(§3) A primary screen was also conducted for a number of other compounds of the invention. The screen was conducted at 20 ppm and the results are provided in Table 2, in which D represents no control detected at this concentration; C represents up to 50% control; B from 50 to 99% control; and A represents a control of greater than 99%.
(§4) Alternatively, or in addition, the same assay was conducted at descending test concentrations with 5-fold dilutions typically down to 0.032 ppm, and an EC50 (the concentration at which 50% control would be achieved) was determined. The results are provided in Table 1 in which G represents an EC50 above 20 ppm, F represents an EC50 of 2-20 ppm and E represents and EC50 less than 2 ppm.

[2] = test system: Pythium ultimum; assay: as above; type: cell-based; details: for inhibition of growth at 20 ppm / EC50: Globisporangium ultimum; for inhibition of growth at 20 ppm / control over the fungal pathogens tested (in words): primary screen at 20 ppm; for inhibition of growth at 20 ppm: read-out: % control at 20 ppm; for EC50: descending test concentrations, 5-fold dilutions typically down to 0.032 ppm, read-out: Pythium ultimum (EC50)
Experimental: as §1, §2, §3, §4

[3] = Pythium ultimum, dose 0.032 ppm in amended agar
[4] = Pythium ultimum, dose 0.16 ppm in amended agar
[5] = Pythium ultimum, dose 0.8 ppm in amended agar
[6] = Pythium ultimum, dose 4 ppm in amended agar
[7] = Pythium ultimum, dose 20 ppm in amended agar

SMILES	average % control at given dosage ([1]; dose 0.032 ppm in amended agar)	average % control at given dosage ([1]; dose 0.16 ppm in amended agar)	average % control at given dosage ([1]; dose 0.8 ppm in amended agar)	average % control at given dosage ([1]; dose 4 ppm in amended agar)	average % control at given dosage ([1]; dose 20 ppm in amended agar)	inhibition of growth at 20 ppm [1]	inhibition of growth at 20 ppm ([2]; Pythium ultimum)	average % control at given dosage [2, 3]	average % control at given dosage [2, 4]	average % control at given dosage [2, 5]	average % control at given dosage [2, 6]	average % control at given dosage [2, 7]	control over the tested oomycete fungal plant pathogens (in words) ([1]; Table 1 doses 0.032-20 ppm, even at low concentrations)	EC50 [1]	control over the fungal pathogens tested (in words) [1]	EC50 [2]	control over the tested oomycete fungal plant pathogens (in words) ([2]; Pythium ultimum, Table 1 doses 0.032-20 ppm, even at low concentrations)	control over the fungal pathogens tested (in words) ([2]; Pythium ultimum)
Cn1nnnc1C(=NOCc1cccc(NC(=O)C(F)(F)Oc2ccccc2)n1)c1ccccc1 [A, reference compound]	*** (an average control of 80% or greater at said dosage)	*** (an average control of 80% or greater at said dosage)	*** (an average control of 80% or greater at said dosage)	*** (an average control of 80% or greater at said dosage)	*** (an average control of 80% or greater at said dosage)	> 99%	> 99%	*** (an average control of 80% or greater at said dosage)	*** (an average control of 80% or greater at said dosage)	*** (an average control of 80% or greater at said dosage)	*** (an average control of 80% or greater at said dosage)	*** (an average control of 80% or greater at said dosage)	–	–	–	–	–	–
Cn1nnnc1N(C(=O)OCc1cccc(NC(=O)C(F)(F)Oc2ccccc2)n1)c1ccccc1 [B, reference compound]	* (an average control of up to 50% at said dosage)	** (an average control of 50% or greater but less than 80% at said dosage)	** (an average control of 50% or greater but less than 80% at said dosage)	** (an average control of 50% or greater but less than 80% at said dosage)	** (an average control of 50% or greater but less than 80% at said dosage)	–	–	* (an average control of up to 50% at said dosage)	** (an average control of 50% or greater but less than 80% at said dosage)	** (an average control of 50% or greater but less than 80% at said dosage)	*** (an average control of 80% or greater at said dosage)	*** (an average control of 80% or greater at said dosage)	–	–	–	–	–	–
Cn1nnnc1-n1c(OCc2cccc(NC(=O)C(F)(F)Oc3ccccc3)n2)nc2ccccc21 [Example 1, 2,2-Difluoro-N-(6-(((1-(1-methyl-1H-tetrazol-5-yl)-1H-benzo[d]imidazol-2-yl)oxy)methyl)pyridin-2-yl)-2-phenoxyacetamide]	*** (an average control of 80% or greater at said dosage)	*** (an average control of 80% or greater at said dosage)	*** (an average control of 80% or greater at said dosage)	*** (an average control of 80% or greater at said dosage)	*** (an average control of 80% or greater at said dosage)	> 99%	> 99%	*** (an average control of 80% or greater at said dosage)	*** (an average control of 80% or greater at said dosage)	*** (an average control of 80% or greater at said dosage)	*** (an average control of 80% or greater at said dosage)	*** (an average control of 80% or greater at said dosage)	excellent control	< 2 µg/mL	excellent control	< 2 µg/mL	excellent control	excellent control
Cn1nnnc1-n1c(OCc2cccc(NC(=O)OC(C)(C)C)n2)nc2ccccc21 [Example 2]	–	–	–	–	–	> 99%	> 99%	–	–	–	–	–	–	< 2 µg/mL	excellent control	< 2 µg/mL	–	excellent control
Cc1cc(-n2c(OCc3cccc(NC(=O)C(F)(F)Oc4ccccc4)n3)nc3ccccc32)sn1 [Example 8]	–	–	–	–	–	–	< 50%	–	–	–	–	–	–	–	–	–	–	–
